{
  "source": "patent US9173892B2",
  "about": "“Acadesine derivatives, products and compositions including same, therapeutic uses thereof, and methods for synthesizing same” (Universite Nice Sophia Antipolis, priority 2011, dated 2015)",
  "assay_type_in_all_cases": "cell-based, human",
  "key": {"K562 cells [1]": {"test_system": "K562 cells", "test": "cell viability (XTT) of imatinib-sensitive K562 cells", "conditions": "K562", "description": "(§1) The K562 leukemic cell line is obtained from the pleural effusion of a patient with CML. This line is a good model for studying this disease. […] The K562 and ImaR cells are cultivated at 37° C. under 5% CO2 in an RPMI 1640 medium containing 5% fetal bovine serum and supplemented with sodium pyruvate and antibiotics (penicillin-streptomycin).\n(§2) FIGS. 1 to 4 reflect the study of the cell viability.\n(§3) After the addition of XTT reagent, the absorbance is measured at 490 nm.\nas §3, §3\nAfter adding XTT reagent, the absorbance is measured at 490 nm."}, "ImaR cells [2]": {"test_system": "ImaR cells", "test": "cell viability (XTT) of imatinib-resistant ImaR cells", "description": "as §1, §2, §3, §3"}, "caspase-3 [3]": {"test_system": "caspase-3", "test": "caspase-3 activity (Ac-DEVD-AMC) in K562 cells", "conditions": "24 hours, imatinib 3 μM, AICAR 1 mM, 112 at 2.5 μM, 15, 23, 49 at 10 μM", "description": "(§4) The cells are lyzed and 10 μg of proteins are placed in the presence of Ac-DEVD-AMC in a 96-well plate. The fluorescence emission at 460 nm resulting from the release of AMC is then recorded."}, "caspase-3 [4]": {"test_system": "caspase-3", "test": "caspase-3 activity (Ac-DEVD-AMC) in ImaR cells", "conditions": "24 hours, imatinib 3 μM, AICAR 1 mM, 112 at 2.5 μM, 15, 23, 49 at 10 μM", "description": "as §4"}, "K562 cells [5]": {"test_system": "K562 cells", "test": "western blot of apoptosis and autophagy markers, K562 cells", "conditions": "K562, 24 hours, AICAR 1 mM", "description": "(§5) The cells are lyzed and 35 μg of proteins are separated by SDS-PAGE (12 or 14% polyacrylamide gel) and analyzed by western blot with antibodies specific to each of the markers."}, "ImaR cells [6]": {"test_system": "ImaR cells", "test": "western blot of apoptosis and autophagy markers, ImaR cells", "conditions": "24 hours", "description": "as §5"}, "mTOR pathway [7]": {"test_system": "mTOR pathway", "test": "western blot of 4E-BP1 phosphorylation (mTOR pathway), K562 cells", "conditions": "24 hours, imatinib 3 μM, AICAR 1 mM, 82, 112 at 2.5 μM, 15, 23, 191 at 10 μM", "description": "(§6) The cells are lyzed and 30 μg of proteins are separated by SDS-PAGE (13% polyacrylamide gel) and analyzed by western blot with an antibody specific to the 4E-BP1 protein. The delayed gel migration observed reflects the level of phosphorylation of 4E-BP1."}, "mTOR pathway [8]": {"test_system": "mTOR pathway", "test": "western blot of 4E-BP1 phosphorylation (mTOR pathway), ImaR cells", "conditions": "24 hours, imatinib 3 μM, AICAR 1 mM, 82, 112 at 2.5 μM, 15, 23, 191 at 10 μM", "description": "as §6"}, "cathepsin-B [9]": {"test_system": "cathepsin-B", "test": "cathepsin-B activity (z-RR-AMC) in K562 cells", "conditions": "24 hours, AICAR 1 mM, 82, 112 at 2.5 μM, 15, 23, 191 at 10 μM", "description": "(§7) The cells are lyzed and 5 μg of proteins are placed in the presence of z-RR-AMC in a 96-well plate. The fluorescence emission at 460 nm resulting from the release of AMC is then recorded."}, "cathepsin-B [10]": {"test_system": "cathepsin-B", "test": "cathepsin-B activity (z-RR-AMC) in ImaR cells", "conditions": "24 hours, AICAR 1 mM, 82, 112 at 2.5 μM, 15, 23, 191 at 10 μM", "description": "as §7"}, "[11]": {"conditions": "0.5 mM, 24 or 48 hours, Example 1"}, "[12]": {"conditions": "5, 10, 25 and 50 μM, compounds effective at concentrations as low as 5 μM"}, "[13]": {"conditions": "AICAR 1 mM, compounds 2.5 or 10 μM"}},
  "data": [
    {"smiles": "NC(=O)c1ncn([C@@H]2O[C@H](CO)[C@@H](O)[C@H]2O)c1N", "note": "[AICAR, 5-aminoimidazole-4-carboxamide-1-β-D-ribofuranoside, reference compound]", "values": [
      {"measurement": "reduction in cell viability", "setting": "K562 cells [1]; [11]", "value": "cell viability loss"},
      {"measurement": "efficacy in dose-response experiment (number of viable cells)", "setting": "K562 cells [1]; [12]", "value": "ineffective"},
      {"measurement": "reduction in cell viability", "setting": "ImaR cells [2]; [11]", "value": "cell viability loss"},
      {"measurement": "efficacy in dose-response experiment (number of viable cells)", "setting": "ImaR cells [2]; [12]", "value": "ineffective"},
      {"measurement": "increase in the caspase-3 activity (factor with respect to the control)", "setting": "caspase-3 [3]", "value": "incapable of inducing this activation"},
      {"measurement": "increase in the caspase-3 activity (factor with respect to the control)", "setting": "caspase-3 [4]", "value": "incapable of inducing this activation"},
      {"measurement": "expression of p62/SQSTM1", "setting": "K562 cells [5]; 82, 86, 112 at 2.5 μM, 15, 23, 191 at 10 μM", "value": "increase in the expression"},
      {"measurement": "LC3 cleavage (LC3-I into LC3-II)", "setting": "K562 cells [5]; 82, 86 at 2.5 μM, 15, 23, 191, 49 at 10 μM", "value": "cleaved"},
      {"measurement": "AMPK activation (level of phosphorylation)", "setting": "K562 cells [5]; compounds 2.5 or 10 μM", "value": "activated"},
      {"measurement": "mTOR pathway: phosphorylation of the ribosomal protein S6", "setting": "K562 cells [5]; compounds 2.5 or 10 μM", "value": "massive dephosphorylation"},
      {"measurement": "expression of p62/SQSTM1", "setting": "ImaR cells [6]; AICAR 1 mM, 82, 86, 112 at 2.5 μM, 15, 23, 191 at 10 μM", "value": "increase in the expression"},
      {"measurement": "LC3 cleavage (LC3-I into LC3-II)", "setting": "ImaR cells [6]; AICAR 1 mM, 82, 86 at 2.5 μM, 15, 23, 191, 49 at 10 μM", "value": "cleaved"},
      {"measurement": "AMPK activation (level of phosphorylation)", "setting": "ImaR cells [6]; [13]", "value": "activated"},
      {"measurement": "mTOR pathway: phosphorylation of the ribosomal protein S6", "setting": "ImaR cells [6]; [13]", "value": "massive dephosphorylation"},
      {"measurement": "phosphorylation of 4E-BP1", "setting": "mTOR pathway [7]", "value": "total reduction"},
      {"measurement": "phosphorylation of 4E-BP1", "setting": "mTOR pathway [8]", "value": "total reduction"},
      {"measurement": "increase in the cathepsin-B activity (factor)", "setting": "cathepsin-B [9]", "value": "increase"},
      {"measurement": "increase in the cathepsin-B activity (factor)", "setting": "cathepsin-B [10]", "value": "increase"}
    ]}
  ]
}
